{"source": "patent US5663335A", "about": "“Immunosuppressive compounds and methods” (priority 1996, dated 1997)", "key": {"[1]": {"test": "Stability in blood serum (TLC)", "format": "in vitro ADME", "conditions": "rat serum, 37° C; for stability in serum, 3 to 5 minutes: first 3 to 5 minutes", "method": "The stability of triptolide succinate in blood serum was determined as detailed in Example 10B. In this study, a solution of triptolide succinate (YM-262, free acid) in DMSO was mixed with rat serum and incubated at 37° C. The mixture was assayed periodically by thin layer chromatography (TLC) to follow the hydrolysis of the triptolide succinate over time.\nA solution of triptolide succinate (free acid; YM-262) in DMSO was made at a concentration of 25 mg/ml, and 0.1 ml of this solution was mixed with 0.5 ml of rat serum. The mixture was incubated at 37° C. Aliquots of the mixture were taken at 1, 3, 5, 15, 45 minutes and 18 hours and analyzed by thin layer chromatography (TLC). The TLC plates were developed in 1:5 CH2 CI2 /Et2 O. After development, the plates were treated with iodine vapor and examined under a UV lamp. Triptolide and triptolide succinate were used as reference compounds (Rf =0.60), and 0.45, respectively)."}, "[2]": {"test": "Cytotoxicity by MTT assay, reported with the IL-1 assay (Table I)", "format": "cell-based", "conditions": "mouse, thymocytes, cytotoxic when toxicity greater than 25%", "method": "Potential cytotoxicity of the test samples was assessed by the measurement of their effect on the reduction of MTT (3-[4,5-Dimethylthiazole-2-yl]-2,5-diphenyltetrazolium bromide) by cultured cells. MTT, a yellow-colored compound, is reduced by mitochondrial enzymes to form the purple crystalline reduction product formazane, providing an index of cellular respiration on viable cells as well as a sensitive assay for cytotoxicity (Mossmann, 1983).\nThe cytotoxicity was assessed in cultured human PBMC and mouse thymocytes. A stock solution of MTT (Sigma) at 5 mg/ml in phosphate buffered saline, pH 7.4, was prepared and stored in the dark at 4° C. PBMCs or thymocytes were cultured with various concentrations of test samples in flatbottom 96-well tissue culture plates (Costar) under the same conditions as those described above, but the stimulants (X-35 or IL-1+PHA) were replaced by appropriate medium. Untreated cells with medium alone and without the test samples were used as controls. After incubation for 21 hours, 25 μl of MTT solution was added to each well. After an additional three hours of incubation, the experiment was terminated by addition of a solution of 10% sodium dodecyl sulfate in 0.01N HCl. Following overnight incubation at 37° C. to solubilize the formazane crystals, optical density was determined at 570-650 nm in microplate reader. […]"}, "[3]": {"test_system": "rat heart allograft rejection (Brown Norway donor, Lewis recipient)", "test": "Heterotopic cardiac allograft survival (heart transplantation model)", "format": "in vivo", "conditions": "for mean survival time: intraperitoneal, daily, day -1 to day 14; for mean survival time compared with underivatized triptolide: equimolar doses: YM-273 0.40 mg/kg, YM-274 0.33 mg/kg, T10 0.25 mg/kg, i.p.", "text": "Treatment of transplantation rejection, in accordance with the invention, is illustrated for rejection of an allograft by the heart transplantation model used in Example 14. The method involves a well-characterized rat model system (Oho and Lindsey, 1969) in which a transplanted heart is attached to the abdominal great vessels of an allogeneic recipient animal, and the viability of the transplanted heart is gauged by the heart's ability to beat in the recipient animal.\nIn one study, the animals were administered by intraperitoneal injections, from one day preceding to 14 days following heart transplantation, either control solution (5% ethanol, 10 ml/kg), triptolide (designated as T10), or with two concentrations each of YM-273 and YM-274. There were three animals in each group, except for the control group in which five animals were used.\nHeterotopic whole heart transplantation was performed according to the standard method (Oho and Lindsey, 1969). The donors (Brown Norway rats, 200-255 g, Charles River, Wilmington, Mass.) and recipients (Adult male Lewis rats, 225-275 g, Charles River) were anesthetized with sodium pentobarbital (40 mg/kg). Following adequate donor anticoagulation using heparin, the heart graft was removed and stored at 4° C. in PhysioSol Irrigation Solution (Abbott Laboratories, N. Chicago, Ill.). The ascending aorta and pulmonary artery were transected, and the vena cava and pulmonary veins were ligated. […] The cold ischemic time of all the cardiac grafts was less than 45 minutes. Graft heartbeat was monitored by abdominal palpation. The period of functional graft survival was measured as the number of days during which cardiac graft contractions could be detected by abdominal palpation. Results were confirmed by direct visualization at laparotomy.\nHeart transplant recipient animals prepared as described above (3-5 animals/group) were treated with (i) control solution (5% ethanol, 10 ml/kg), (ii) YM-273 at 0.10 mg/kg and 0.40 mg/kg (FIG. 5A), (iii) YM-274 at 0.084 and 0.33 mg/kg (FIG. 5B), and (iv) and T10 (triptolide) 0.25 mg/kg (FIG. 6). In addition to showing the results for T10, FIG. 6 repeats the results from FIGS. 5A-5B for YM-273 and YM-274 at 0.40 and 0.33 mg/kg, respectively, such that their concentrations were equimolar relative to T10. All compounds were administered intraperitoneally. Treatment started on the day prior to surgery and continuing daily until postoperative day 14, or until the end of allograft survival."}, "[4]": {"test": "Stability in water (D2O solution, 1H NMR)", "format": "physicochemical", "conditions": "3 mg/ml, room temperature, Succinate Sodium Salt", "method": "Sodium triptolide succinate, designated YM-274, was dissolved in D2 O, and the aqueous solution was stored at room temperature.\nA solution of sodium triptolide succinate (YM-274) in D2 O was prepared at a concentration of 3 mg/ml and stored at room temperature. The solution was analyzed by ^1 H NMR at intervals of 1, 3, 5, 15, 45, 90, 180 minutes; 1, 7, 14 days; and 1, 2, 3, and 5 months."}}, "note": "Entries after “also recorded” stand apart in the source; their conditions may differ. Counter-ions that a name gives are not always drawn."}
{"smiles": "CC(C)C12OC1C1OC13C1(C)CCC4=C(COC4=O)C1CC1OC13C2OC(=O)CCC(=O)O", "note": "(stereo not drawn) [YM-262, Triptolide Succinate]", "values": [{"measurement": "time for hydrolysis of the triptolide ester to free triptolide in serum", "setting": "[1]", "result": "less than an hour"}, {"measurement": "stability in serum, 15 minutes", "setting": "[1]; 15 minutes", "result": "the triptolide succinate spot was gone"}, {"measurement": "stability in serum, 3 to 5 minutes", "setting": "[1]", "result": "most of the triptolide succinate remained"}, {"measurement": "stability in serum, 3 to 5 minutes", "setting": "[1]; listed as triptolide succinate", "result": "only triptolide succinate was detected by TLC"}, {"measurement": "MCC", "setting": "[2]", "result": "> 12.5", "unit": "µg/mL"}]}
{"smiles": "CC(C)C12OC1C1OC13C1(C)CCC4=C(COC4=O)C1CC1OC13C2OC(=O)CCC(=O)O", "note": "(stereo not drawn) [YM-273, Triptolide Succinate Tris Salt]", "values": [{"measurement": "mean survival time", "setting": "[3]; 0.1 mg/kg", "result": 7, "unit": "days"}, {"measurement": "mean survival time", "setting": "[3]; 0.4 mg/kg", "result": 24, "unit": "days"}, {"measurement": "mean survival time compared with underivatized triptolide", "setting": "[3]", "result": "somewhat better"}]}
{"smiles": "CC(C)C12OC1C1OC13C1(C)CCC4=C(COC4=O)C1CC1OC13C2OC(=O)CCC(=O)O", "note": "(stereo not drawn) [YM-274, Triptolide Succinate Sodium Salt]", "values": [{"measurement": "stability in D2O, five months", "setting": "[4]; five months", "result": "Some decomposition was apparent after 5 months; also recorded: some decomposition was observed"}, {"measurement": "stability in D2O, up to three months", "setting": "[4]; three months", "result": "no appreciable change in the NMR spectrum during the first three months; also recorded: unchanged after three months in solution"}, {"measurement": "mean survival time", "setting": "[3]; 0.0837 mg/kg", "result": 10, "unit": "days"}, {"measurement": "mean survival time compared with underivatized triptolide", "setting": "[3]; Succinate Sodium Salt", "result": "substantially better"}]}
